Six molecules from PubChem BioAssay AID212 (DTP/NCI, 2004) can be followed below.

For the assay, the system named is BDF1 mice, colon carcinoma 38 sc, T/C %. The assay can be described thus: NCI In Vivo Anticancer Drug Screen. Data for tumor model Colon Carcinoma 38 (subcutaneous) in B6D2F1 (BDF1) mice. The method, boiled down: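 Compound antitumor activity was assessed in mice carrying transplantable tumors. Survival or tumor size was recorded, and each value is the treated-group measurement divided by that of the vehicle-treated control group.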

Where [1] appears, read: endpoint: median tumor weight (est.), dose: 200.0 mg/kg/injection, schedule: Q07DX002 (ip), vehicle: Klucel (hydroxypropylcellulose) (HPC), higher = larger tumour.

Values joined by “and” are separate entries in the source; they are usually repeats but may differ in a detail not shown here. Equal values may be shown once. Records with an inconclusive call do not appear.

For the molecule `Nc1ccc(S(=O)(=O)c2ccc(N)cc2)cc1`, the T/C reads like this: (endpoint: median tumor weight (est.), dose: 6.25 mg/kg/injection, schedule: Q07DX002 (ip), vehicle: saline with Tween-80, higher = larger tumour) 154 % of control; (endpoint: median tumor weight (est.), dose: 12.5 mg/kg/injection, schedule: Q07DX002 (ip), vehicle: saline with Tween-80, higher = larger tumour) 111 % of control; (endpoint: median tumor weight (est.), dose: 50.0 mg/kg/injection, schedule: Q07DX002 (ip), vehicle: saline with Tween-80, higher = larger tumour) 85 % of control and 92 % of control; (endpoint: median tumor weight (est.), dose: 56.0 mg/kg/injection, schedule: Q07DX002 (ip), vehicle: saline with Tween-80, higher = larger tumour) 109 % of control; (endpoint: median tumor weight (est.), dose: 450.0 mg/kg/injection, schedule: Q07DX002 (ip), vehicle: saline with Tween-80, higher = larger tumour) 87 % of control; (endpoint: median tumor weight (est.), dose: 900.0 mg/kg/injection, schedule: Q07DX002 (ip), vehicle: saline with Tween-80, higher = larger tumour) 71 % of control.
Take `CC(=O)OC1=NC(C)c2c1cc(OC(C)=O)[nH]c2=O` (centres undefined): the T/C is 124 % of control (endpoint: median tumor weight (est.), dose: 6.25 mg/kg/injection, schedule: Q07DX002 (ip), vehicle: Klucel (hydroxypropylcellulose) (HPC), higher = larger tumour); 70 % of control and 85 % of control (endpoint: median tumor weight (est.), dose: 12.5 mg/kg/injection, schedule: Q07DX002 (ip), vehicle: Klucel (hydroxypropylcellulose) (HPC), higher = larger tumour); 100 % of control under setting [1].
Turning to `CS(=O)(=O)[O-].CS(=O)(=O)[O-].NC1CCCCC1N.[Pt+4]` (centres undefined), the T/C (endpoint: median tumor weight (est.), dose: 0.31 mg/kg/injection, schedule: Q07DX002 (ip), vehicle: dextrose, higher = larger tumour) was 71 % of control; the T/C (endpoint: median tumor weight (est.), dose: 0.62 mg/kg/injection, schedule: Q07DX002 (ip), vehicle: dextrose, higher = larger tumour) is 58 % of control and 82 % of control; the T/C (endpoint: median tumor weight (est.), dose: 1.25 mg/kg/injection, schedule: Q07DX002 (ip), vehicle: dextrose, higher = larger tumour) is 54 % of control and 56 % of control; the T/C (endpoint: median tumor weight (est.), dose: 2.5 mg/kg/injection, schedule: Q07DX002 (ip), vehicle: dextrose, higher = larger tumour) was 35 % of control and 45 % of control; the T/C (endpoint: median tumor weight (est.), dose: 5.0 mg/kg/injection, schedule: Q07DX002 (ip), vehicle: dextrose, higher = larger tumour) is 39 % of control; the T/C (endpoint: median tumor weight (est.), dose: 10.0 mg/kg/injection, schedule: Q07DX002 (ip), vehicle: dextrose, higher = larger tumour) was 19 % of control.
On to `CCOC(=O)Nc1cc2c(c(N)n1)N=C(c1ccccc1)CN2`, for which the T/C was 66 % of control (endpoint: median tumor weight (est.), dose: 2.5 mg/kg/injection, schedule: Q07DX002 (ip), vehicle: saline with Tween-80, higher = larger tumour); 73 % of control (endpoint: median tumor weight (est.), dose: 5.0 mg/kg/injection, schedule: Q07DX002 (ip), vehicle: saline with Tween-80, higher = larger tumour); 97 % of control (endpoint: median tumor weight (est.), dose: 10.0 mg/kg/injection, schedule: Q07DX002 (ip), vehicle: saline with Tween-80, higher = larger tumour).
Consider `Nc1ccc2c(c1)CN1C(=O)c3ccccc3C1=N2`, for which the T/C by setting is: (endpoint: median survival time, dose: 60.0 mg/kg/injection, schedule: Q07DX002 (oral), vehicle: saline with Tween-80, higher = longer survival) 96 % of control; (endpoint: median survival time, dose: 100.0 mg/kg/injection, schedule: Q01DX008 (oral), vehicle: saline with Tween-80, higher = longer survival) 103 % of control; (endpoint: median survival time, dose: 200.0 mg/kg/injection, schedule: Q01DX008 (oral), vehicle: saline with Tween-80, higher = longer survival) 96 % of control; (endpoint: median survival time, dose: 800.0 mg/kg/injection, schedule: Q07DX002 (oral), vehicle: saline with Tween-80, higher = longer survival) 90 % of control; (endpoint: median survival time, dose: 1000.0 mg/kg/injection, schedule: Q07DX002 (oral), vehicle: saline with Tween-80, higher = longer survival) 97 % of control; (endpoint: median tumor weight (est.), dose: 50.0 mg/kg/injection, schedule: Q07DX002 (ip), vehicle: DMSO, higher = larger tumour) 50 % of control. Besides, the T/C was 13 % of control (endpoint: median tumor weight (est.), dose: 100.0 mg/kg/injection, schedule: Q07DX002 (ip), vehicle: other, higher = larger tumour); 52 % of control (endpoint: median tumor weight (est.), dose: 103.7 mg/kg/injection, schedule: Q01DX005 (oral), vehicle: saline with Tween-80, higher = larger tumour); 26 % of control (endpoint: median tumor weight (est.), dose: 129.6 mg/kg/injection, schedule: Q06HX004 (oral), vehicle: saline with Tween-80, higher = larger tumour); 52 % of control (endpoint: median tumor weight (est.), dose: 172.8 mg/kg/injection, schedule: Q01DX005 (oral), vehicle: saline with Tween-80, higher = larger tumour); 27 % of control (endpoint: median tumor weight (est.), dose: 200.0 mg/kg/injection, schedule: Q07DX002 (oral), vehicle: saline with Tween-80, higher = larger tumour); 16 % of control (endpoint: median tumor weight (est.), dose: 216.0 mg/kg/injection, schedule: Q06HX004 (oral), vehicle: saline with Tween-80, higher = larger tumour). Besides, the T/C runs as follows: (endpoint: median tumor weight (est.), dose: 288.0 mg/kg/injection, schedule: Q01DX005 (oral), vehicle: saline with Tween-80, higher = larger tumour) 7 % of control; (endpoint: median tumor weight change, dose: 70.4 mg/kg/injection, schedule: Q01DX009 (oral), vehicle: saline with Tween-80, higher = larger tumour) 13 % of control; (endpoint: median tumor weight change, dose: 105.6 mg/kg/injection, schedule: Q01DX005 (oral), vehicle: saline with Tween-80, higher = larger tumour) 68 % of control; (endpoint: median tumor weight change, dose: 105.6 mg/kg/injection, schedule: Q01DX009 (oral), vehicle: saline with Tween-80, higher = larger tumour) 42 % of control; (endpoint: median tumor weight change, dose: 158.3 mg/kg/injection, schedule: Q01DX005 (oral), vehicle: saline with Tween-80, higher = larger tumour) -5 % of control; (endpoint: median tumor weight change, dose: 158.3 mg/kg/injection, schedule: Q01DX009 (oral), vehicle: saline with Tween-80, higher = larger tumour) -40 % of control. Also, the T/C is 71 % of control (endpoint: median tumor weight change, dose: 158.3 mg/kg/injection, schedule: Q06HX002 (oral), vehicle: saline with Tween-80, higher = larger tumour); 60 % of control (endpoint: median tumor weight change, dose: 158.3 mg/kg/injection, schedule: Q06HX004 (oral), vehicle: saline with Tween-80, higher = larger tumour); 24 % of control (endpoint: median tumor weight change, dose: 158.3 mg/kg/injection, schedule: Q07DX003 (oral), vehicle: saline with Tween-80, higher = larger tumour); 33 % of control (endpoint: median tumor weight change, dose: 237.0 mg/kg/injection, schedule: Q08DX002 (oral), vehicle: saline with Tween-80, higher = larger tumour); -60 % of control (endpoint: median tumor weight change, dose: 237.4 mg/kg/injection, schedule: Q01DX005 (oral), vehicle: saline with Tween-80, higher = larger tumour); 37 % of control (endpoint: median tumor weight change, dose: 237.4 mg/kg/injection, schedule: Q06HX002 (oral), vehicle: saline with Tween-80, higher = larger tumour). Also, the T/C was 36 % of control (endpoint: median tumor weight change, dose: 237.4 mg/kg/injection, schedule: Q06HX004 (oral), vehicle: saline with Tween-80, higher = larger tumour); 80 % of control (endpoint: median tumor weight change, dose: 237.4 mg/kg/injection, schedule: Q07DX002 (oral), vehicle: saline with Tween-80, higher = larger tumour); 69 % of control (endpoint: median tumor weight change, dose: 237.4 mg/kg/injection, schedule: Q07DX003 (oral), vehicle: saline with Tween-80, higher = larger tumour); 68 % of control (endpoint: median tumor weight change, dose: 355.9 mg/kg/injection, schedule: Q01DX001 (oral), vehicle: saline with Tween-80, higher = larger tumour); -88 % of control (endpoint: median tumor weight change, dose: 355.9 mg/kg/injection, schedule: Q01DX005 (oral), vehicle: saline with Tween-80, higher = larger tumour); 48 % of control and 66 % of control (endpoint: median tumor weight change, dose: 355.9 mg/kg/injection, schedule: Q06HX002 (oral), vehicle: saline with Tween-80, higher = larger tumour). In addition, the T/C reads like this: (endpoint: median tumor weight change, dose: 355.9 mg/kg/injection, schedule: Q06HX004 (oral), vehicle: saline with Tween-80, higher = larger tumour) -13 % of control; (endpoint: median tumor weight change, dose: 355.9 mg/kg/injection, schedule: Q07DX002 (oral), vehicle: saline with Tween-80, higher = larger tumour) 23 % of control; (endpoint: median tumor weight change, dose: 355.9 mg/kg/injection, schedule: Q07DX003 (oral), vehicle: saline with Tween-80, higher = larger tumour) 55 % of control; (endpoint: median tumor weight change, dose: 355.9 mg/kg/injection, schedule: Q08DX002 (oral), vehicle: saline with Tween-80, higher = larger tumour) 33 % of control; (endpoint: median tumor weight change, dose: 533.6 mg/kg/injection, schedule: Q01DX001 (oral), vehicle: saline with Tween-80, higher = larger tumour) 66 % of control; (endpoint: median tumor weight change, dose: 533.6 mg/kg/injection, schedule: Q06HX002 (oral), vehicle: saline with Tween-80, higher = larger tumour) -46 % of control and -38 % of control. The T/C reads like this: (endpoint: median tumor weight change, dose: 533.6 mg/kg/injection, schedule: Q06HX004 (oral), vehicle: saline with Tween-80, higher = larger tumour) -50 % of control; (endpoint: median tumor weight change, dose: 533.6 mg/kg/injection, schedule: Q07DX002 (oral), vehicle: saline with Tween-80, higher = larger tumour) 52 % of control; (endpoint: median tumor weight change, dose: 533.6 mg/kg/injection, schedule: Q07DX003 (oral), vehicle: saline with Tween-80, higher = larger tumour) 34 % of control; (endpoint: median tumor weight change, dose: 533.6 mg/kg/injection, schedule: Q08DX002 (oral), vehicle: saline with Tween-80, higher = larger tumour) 34 % of control; (endpoint: median tumor weight change, dose: 800.0 mg/kg/injection, schedule: Q01DX001 (oral), vehicle: saline with Tween-80, higher = larger tumour) 47 % of control; (endpoint: median tumor weight change, dose: 800.0 mg/kg/injection, schedule: Q06HX002 (oral), vehicle: saline with Tween-80, higher = larger tumour) -87 % of control and -85 % of control. Also, the T/C (endpoint: median tumor weight change, dose: 800.0 mg/kg/injection, schedule: Q06HX004 (oral), vehicle: saline with Tween-80, higher = larger tumour) is -99 % of control; the T/C (endpoint: median tumor weight change, dose: 800.0 mg/kg/injection, schedule: Q07DX002 (oral), vehicle: saline with Tween-80, higher = larger tumour) was 1 % of control; the T/C (endpoint: median tumor weight change, dose: 800.0 mg/kg/injection, schedule: Q07DX003 (oral), vehicle: saline with Tween-80, higher = larger tumour) is -10 % of control; the T/C (endpoint: median tumor weight change, dose: 800.0 mg/kg/injection, schedule: Q08DX002 (oral), vehicle: saline with Tween-80, higher = larger tumour) was -14 % of control; the T/C (endpoint: median tumor weight change, dose: 1199.4 mg/kg/injection, schedule: Q01DX001 (oral), vehicle: saline with Tween-80, higher = larger tumour) is 39 % of control; the T/C (endpoint: median tumor weight change, dose: 1199.4 mg/kg/injection, schedule: Q08DX002 (oral), vehicle: saline with Tween-80, higher = larger tumour) is -36 % of control.
On to `O=C(O)Cc1cc(O)cc2c(=O)cc(-c3ccccc3)oc12`, for which the T/C is 52 % of control (endpoint: median tumor weight (est.), dose: 100.0 mg/kg/injection, schedule: Q07DX002 (ip), vehicle: Klucel (hydroxypropylcellulose) (HPC), higher = larger tumour); 63 % of control under setting [1]; 103 % of control (endpoint: median tumor weight (est.), dose: 400.0 mg/kg/injection, schedule: Q07DX002 (ip), vehicle: Klucel (hydroxypropylcellulose) (HPC), higher = larger tumour).
